Converted amounts (≈) assume the structure as drawn. Where a SMILES comes first, the peptide text is derived from it. Bridges are numbered along the chain shown (N, C = ends). The star is where a group is joined. Orn(α-tetramethylguanidino) = CN(C)C(=N[C@@H](CCCN)C(=O)*)N(C)C
What was measured:
[1] = system: E. coli CVCC25922; assay type: cell-based, Escherichia coli
Procedure: (§1) The antimicrobial activity of peptides was determined by the microbroth dilution method ([Zhang et al., 2014]). The bacterial strains were incubated in Mueller-Hinton (MH) medium at 28°C or 37°C overnight. Bacteria (1 × 10^5 CFU/mL) were added into 96-well plates, followed by the addition of serial dilutions of peptides (from 0.0625 to 128 μg/mL). The plates were incubated at 37°C for 18–24 h. The minimal inhibitory concentration (MIC) value was determined as the lowest peptide concentration at which no bacterial growth was observed.

[2] = system: E. coli CVCC1515; assay type: cell-based, Escherichia coli
Procedure: as §1

[3] = system: RAW 264.7 macrophages; assay type: cell-based, mouse
Procedure: To quantify peptide uptake, RAW 264.7 macrophages were grown in 12-well plates (2.5 × 10^5 cells/mL, 750 μL/well) for 24 h. Then, the cells were treated with FITC-N6NH2 and FITC-GUON6NH2 (1, 5, 10, 25, and 50× MIC) for 18 h and washed with PBS. To avoid the influence of membrane-bound FITC-labeled peptides, the cells were incubated with 0.04% trypan blue in PBS for 15 min and the fluorescence intensity was analyzed using a FACS Calibur Flow Cytometer (BD, United States) ([Duchardt et al., 2009]).

[4] = system: E. tarda; experiment: Mouse peritonitis model, bacterial counts in peritoneal fluid; assay type: in vivo; details: 1 μmol/kg i.p., peritoneal fluid cells 24 h after treatment
Procedure: The mice were intraperitoneally infected with E. tarda (1 × 10^9 CFU/mL, 0.5 mL) and then injected with N6NH2 and GUON6NH2 (1 μmol/kg) or PBS (the blank control) in the same way at 1 h after infection. The mice were then killed at 24 h after treatment, and peritoneal fluids were obtained by washing with 5 mL of ice-cold PBS. The total number of E. tarda in the fluids was determined before any further procedures. For intracellular bacteria quantification, the other fraction was centrifuged for 5 min at 4°C (1,000 rpm). The cells were collected, treated with 1,000 μg/mL gentamicin for 30 min at 37°C to kill extracellular bacteria, and washed with ice-cold PBS twice to remove extracellular gentamicin. Subsequently, the cells were lysed and the bacteria were counted as described above for the in vitro experiment ([Kim et al., 2011]).

[5] = system: S. hyicus 15095; assay type: cell-based, Staphylococcus hyicus
Procedure: as §1

[6] = system: LPS; experiment: LPS binding, BODIPY-TR-cadaverine (BC) probe displacement; details: 0.5 μM LPS, 5 μM BC, Tris buffer pH 7.4; peptides 0.049 to 50 μM
Procedure: The BODIPY’-TR-cadaverine (BC) probe was used to determine the ability of peptides to bind to LPS ([Wang et al., 2020]). 0.5 μM LPS was incubated with 5 μM BC in […] Tris buffer (pH 7.4) for 4 h at 37°C. Subsequently, the peptides were added into the mixture and the final concentrations of peptides ranged from 0.049 to 50 μM. Ampicillin was used as the negative control. Changes in fluorescence were measured by a fluorescence spectrophotometry at room temperature (excitation/emission, 580/620 nm).

[7] = system: E. tarda; experiment: SEM and TEM morphology; assay type: cell-based, Edwardsiella tarda; details: 4× MIC, 2 h
Procedure: To further characterize the bactericidal effects of the peptides, scanning electron microscopy (SEM) and transmission electron microscopy (TEM) were used to visualize morphological changes ([Yang et al., 2019]). E. tarda was cultured to logarithmic growth stage (10^8 CFU/mL) and diluted with 0.01 M PBS (pH 7.4) to OD600 nm = 1. E. tarda cells were treated with 4× MIC peptides at 37°C for 2 h and the untreated cells were used as the control. Briefly, after centrifugation, the bacterial cells were washed three times with 0.1 M PBS (pH 7.2) and fixed overnight at 4°C with 2.5% glutaraldehyde. After washing again, the cells were fixed with 1% osmium tetroxide (OsO4) for 2 h and dehydrated in a graded ethanol series (50%–70%–85%–95% × 2–100%, × 2) for 15 min, respectively. The samples were then dried by CO2, sputtered with gold-palladium, and observed on a QUANTA200 SEM (FEI, Philips, Netherlands).
E. tarda cells were treated peptides before fixation as described above. The bacteria were washed with 0.01 M PBS (pH 7.4) for five times, 7 min each time, and fixed with 1% osmium acid buffer (4°C) for 1 h. After dehydration with a graded acetone series (30%–50%–70%–85%–95%–100% × 3), the cells were immersed in mixtures of acetone and resin (3:1, 1:1 and 1:3, respectively) for 40 min and in a pure epoxy resin overnight. The samples were then embedded in embedding medium and polymerized at 45°C for 3 h and at 65°C for 24 h, respectively. The sections were prepared using an ultramicrotome, stained with 1% uranyl acetate, and visualized by a JEM1400 (JEDL, Tokyo, Japan).

[8] = system: Gram-negative bacteria; experiment: Geometric mean of MICs and therapeutic index; assay type: cell-based; details: for GM Gram-negative bacteria: geometric mean (GM) of MICs against Gram-negative bacteria; for TI Gram-negative bacteria: therapeutic index (TI), cell selectivity
Procedure: as §1
(§2) The geometric mean (GM) of MICs of peptides against Gram-negative and Gram-positive bacteria was calculated, and the result was shown in Table 3. […] For Gram-negative bacteria, the TI value of GUON6NH2 (53.33) was very close to N6NH2 (58.18), while for positive bacteria, the TI value of GUON6NH2 (12.8) was slightly higher than that of N6NH2 (12.31), indicating their huge therapeutic potential. For Gram-positive bacteria, DN6NH2 had the highest TI value and the best therapeutic potential.

[9] = system: Gram-negative and Gram-positive bacteria (ALL); experiment: Geometric mean of MICs and therapeutic index; assay type: cell-based; details: for GM ALL: geometric mean (GM) of MICs, all strains; for TI ALL: therapeutic index (TI), cell selectivity
Procedure: as §1, §2

[10] = system: Gram-positive bacteria; experiment: Geometric mean of MICs and therapeutic index; assay type: cell-based; details: for GM Gram-positive bacteria: geometric mean (GM) of MICs against Gram-positive bacteria; for TI Gram-positive bacteria: therapeutic index (TI), cell selectivity
Procedure: as §1, §2

Row | Compound | MIC [1] [µg/mL] | MIC [2] [µg/mL] | percentages of florescent cells [3] | reduction of intracellular bacteria [4] [Log10 CFU] | MIC [5] [µg/mL] | ability to bind to LPS (BC probe displacement) [6] | morphological changes by SEM [7] | GM Gram-negative bacteria [8] [µg/mL] | TI Gram-negative bacteria [8] | GM ALL [9] [µg/mL] | TI ALL [9] | GM Gram-positive bacteria [10] [µg/mL] | TI Gram-positive bacteria [10]
1 | CC(C)[C@@H]1NC(=O)CNC(=O)[C@H](CC(N)=O)NC(=O)[C@H](CCCNC(=N)N)NC(=O)[C@H](Cc2ccc(O)cc2)NC(=O)[C@H](C(C)C)NC(=O)[C@@H](NC(=O)[C@@H](NC(=O)[C@H](CC(N)=O)NC(=O)[C@H](Cc2c[nH]c3ccccc23)NC(=O)[C@H](C)NC(=O)[C@H](Cc2ccccc2)NC(=O)[C@H](CCCN)N=C(N(C)C)N(C)C)C(C)C)CSSC[C@@H](C(=O)N[C@@H](Cc2c[nH]cn2)C(=O)N[C@@H](CCCNC(=N)N)C(=O)N[C@@H](CCCNC(=N)N)C(=O)N[C@@H](C)C(=O)N[C@@H](CC(N)=O)C(N)=O)NC(=O)[C@H](C(C)C)NC(=O)[C@H](CCCNC(=N)N)NC1=O [GUON6NH2] ({Orn(α-tetramethylguanidino)}-FAWNVCVYRNGVRVCHRRAN-NH2; disulfide 6-15) | 4 (≈ 1.52 µM) | 2 (≈ 0.76 µM) | 16.1–86.5% | 1.97 | 4 (≈ 1.52 µM) | V112N6NH2 > GUON6NH2 > N6NH2 > DN6NH2 > N6PNH2 | some protrusions were observed on the cell surfaces | 4.8 | 53.33 | 9.87 | 25.94 | 20 | 12.8
2 | CC(C)[C@@H]1NC(=O)CNC(=O)[C@H](CC(N)=O)NC(=O)[C@H](CCCNC(=N)N)NC(=O)[C@H](Cc2ccc(O)cc2)NC(=O)[C@H](C(C)C)NC(=O)[C@@H](NC(=O)[C@@H](NC(=O)[C@H](CC(N)=O)NC(=O)[C@H](Cc2c[nH]c3ccccc23)NC(=O)[C@H](C)NC(=O)[C@H](Cc2ccccc2)NC(=O)CN)C(C)C)CSSC[C@@H](C(=O)N[C@@H](Cc2cnc[nH]2)C(=O)N[C@@H](CCCNC(=N)N)C(=O)N[C@@H](CCCNC(=N)N)C(=O)N[C@@H](C)C(=O)N[C@@H](CC(N)=O)C(N)=O)NC(=O)[C@H](C(C)C)NC(=O)[C@H](CCCNC(=N)N)NC1=O [N6NH2] | 4 (≈ 1.62 µM) | 2 (≈ 0.808 µM) | 27.6–79.8% | 1.54 | 8 (≈ 3.23 µM) | V112N6NH2 > GUON6NH2 > N6NH2 > DN6NH2 > N6PNH2 | some protrusions were observed on the cell surfaces | 4.4 | 58.18 | 9.87 | 25.94 | 20.8 | 12.31
